PMC9145754, “Novel Soloxolone Amides as Potent Anti-Glioblastoma Candidates: Design, Synthesis, In Silico Analysis and Biological Activities In Vitro and In Vivo” (Pharmaceuticals, 2022)

What was measured:
HeLa cells = experiment: MTT cytotoxicity assay, HeLa; type: cell-based; conditions: Homo sapiens, 24 h, read-out: IC50, Cervix, HeLa
Method: In the first step of the study, we analyzed the cytotoxicity of novel soloxolone derivatives 1–12 in a panel of tumor cells, including human cervical carcinoma HeLa, human duodenal carcinoma HuTu-80 and murine melanoma B16 cells, as well as human non-transformed hFF3 foreskin fibroblasts. The cells were treated with derivatives for 24 h and cell viability was evaluated by 3-(4,5-dimethylthiazol-2-yl)-2,5-diphenyltetrazolium bromide (MTT) assay. SM was used as the reference compound.
(§1) The cells in the exponential growth phase were seeded in quadruplicate in 96-well plates at a density of 1 × 10^4 cells/well for HeLa, U87, U118, KELLY and Neuro2a cells; 1.5 × 10^4 cells/well for HuTu-80 cells; 2 × 10^4 cells/well for B16 cells; and 7 × 10^3 cells/well for hFF3 fibroblasts. Cells were incubated under standard conditions overnight followed by their treatment with the investigated compounds (1–20 µM) for 24 h. Then, 10 µL of MTT solution was added to the cells to a final concentration of 0.5 mg/mL and plates were placed under standard conditions for 3 h followed by an aspiration of MTT-containing medium and a dissolution of formazan crystals with 100 µL of DMSO. The absorbance of each well was read at test and reference wavelengths of 570 and 620 nm, respectively, on a Multiscan RC plate reader (Thermo LabSystems, Helsinki, Finland).

U87 cells [1] = experiment: MTT cytotoxicity assay, U87; type: cell-based; conditions: Homo sapiens, U-87 MG, 24 h, read-out: IC50, Glioblastoma, U87
Method: To evaluate the antitumor activity of the synthesized soloxolone amides in brain tumor cells, the cytotoxicity of compounds 4–12, predicted as BBB-permeable (Figure 3), was further analyzed in human glioblastoma U87 and U118 cells, as well as human neuroblastoma KELLY and murine neuroblastoma Neuro2a cells.
as §1

U118 glioblastoma cells = experiment: Annexin V-APC/PI apoptosis assay, U118; type: cell-based, human; conditions: for apoptosis, % of U118 cells: 12 at 4 µM
Method: To quantify the percentage of cells undergoing apoptosis, glioblastoma U87 and U118 cells were seeded in 6-well plates at 2.8 × 10^5 cells/well in complete growth medium and incubated at standard conditions overnight followed by treatment with 12 at 4 µM for 24 h. Thereafter, the cells were harvested by trypsinization (TrypLE Express (Gibco, USA)) and centrifugation at 400 g for 5 min, washed with PBS and stained with 5 µL of Annexin V-APC (Sony Biotechnology Inc., San Jose, CA, USA) and 10 µL of propidium iodide (PI) (Invitrogen, Waltham, MA, USA) for 15 min at room temperature in the dark. After the incubation time, the cells were analyzed using a NovoCyte Flow Cytometer (ACEA Biosciences Inc., San Diego, CA, USA). For each sample, 10,000 events were acquired.

U87 cells [2] = experiment: ROS production, DCFDA; type: cell-based, human; conditions: U87, 12 at 4 µM, 24 h
Method: To check the ability of 12 to influence ROS production, U87 cells treated with 12 (4 µM) for 24 h were stained with dichlorodihydrofluorescein diacetate (DCFDA) and analyzed by flow cytometry. […] Since ROS play an important role in the regulation of cell death, we further examined whether ROS production mediated the cytotoxicity of 12 with respect to glioblastoma cells.
Intracellular ROS levels in glioblastoma cells were measured using a DCFDA/H2DCFDA-Cellular ROS Assay Kit (Abcam, Cambridge, UK) according to the manufacturer’s instructions. Briefly, U87 cells were collected by trypsinization and stained with DCFDA at 20 μM for 30 min under standard conditions and seeded in 6-well plates at 2.8 × 10^5 cells/well. Next, the cells were treated with 12 at 4 µM for 24 h, followed by their harvesting and flow cytometry analysis. In total, 10,000 events were recorded for each sample.

U118 cells [3] = experiment: Colony formation assay, U118; type: cell-based, human; conditions: 14 days
Method: To evaluate the antitumor potential of 12 more comprehensively, its effects at non-toxic concentrations (25–500 nM; cell survival of ≥90%) on a range of metastatic-related processes in glioblastoma cells were studied. Firstly, we investigated the inhibitory activity of 12 on the clonogenic capacity of tumor cells in vitro, which reflects their ability to form colonies from single cells which characterizes the stemness of tumor cells and plays a crucial role in metastasis.
U118 cells were seeded in 96-well plates in six replicates at a density of 200 cells/well and treated with 12 at 25–500 nM for 14 days under standard conditions. The culture media were replaced with fresh media containing corresponding concentrations of 12 every 6 days. After the incubation time, cell colonies were fixed with 4% paraformaldehyde, stained with crystal violet dye (0.1% w/v) and photographed using the iBright 1500 Imaging System (Invitrogen, USA). The percentage of area covered by cell colonies was computed using the ColonyArea ImageJ plugin [95].

U118 cells [4] = experiment: Scratch assay (2D migration); type: cell-based, human; conditions: U118, 12 at 100 nM, 48 h
Method: To evaluate the ability of tryptamide 12 to suppress the migration potential of glioblastoma cells, two independent approaches were undertaken, including assessment of cell movement on a 2D surface (scratch assay) and through a trans-well membrane (CIM-Plate).
To assess the 2D motility of glioblastoma cells, U118 cells were seeded in triplicate in 6-well plates at a density of 8 × 10^5 cells/well and cultured to 80% confluence. Thereafter, the cell monolayers were scratched with 10 µL pipette tips and washed twice with PBS to remove floating cells and cell debris and treated with 12 at 100 nM for 48 h. At 0 h and 48 h, the scratched cell monolayers were imaged using a Primo Vert microscope with phase contrast optics (ZEISS, Oberkochen, Germany) equipped with a AxioCam ERc5s camera (ZEISS, Oberkochen, Germany). The wound closure rate was calculated using ImageJ software. In total, 4–5 regions on a single scratch were analyzed.

U87 cells [5] = experiment: Vasculogenic mimicry on Matrigel; type: cell-based, human; conditions: 12 at 200 nM, 5 h
Method: Considering that vasculogenic mimicry (VM), a process whereby tumor cells form tumor cell-lined vasculatures to reinforce blood supply to cancerous tissue, plays a crucial role in glioblastoma progression and aggressiveness and that some pentacyclic triterpenoids can inhibit this process, next we studied whether 12 affects VM in glioblastoma cells.
A 96-well plate was placed on ice for pre-cooling and Matrigel®® Matrix (Corning, Corning, NY, USA) was thawed at 4 °C and added to each well of the plate (50 μL/well). Then, the plate was placed at 37 °C in 5% CO2 for 1 h to solidify the Matrigel. U87 cells were seeded at 2 × 10^4 cells/well on the Matrigel-coated wells and treated with 12 at 200 nM for 5 h. At the end of the incubation time, each well was analyzed under a microscope with a phase contrast Primo Vert (ZEISS, Germany). Tubular structures in each field were imaged with a AxioCam ERc5s camera (ZEISS, Germany) and the average number of tubules from three to four random fields in each well was quantified by ImageJ. The experiment was performed in triplicate.

CC1(C)C(=O)C(C#N)=C[C@]2(C)C3=CC(=O)[C@@H]4[C@@H]5C[C@@](C)(C(=O)NCCc6c[nH]c7ccccc67)CC[C@]5(C)CC[C@@]4(C)[C@]3(C)CC[C@@H]12 [compound 12]
IC50 (HeLa cells): 1500 ± 100 nM | IC50 (U87 cells [1]): 1900 ± 100 nM | apoptosis, % of U118 cells (U118 glioblastoma cells; 6 h): 11.7% | apoptosis, % of U118 cells (U118 glioblastoma cells; 18 h): 34.4% | apoptosis, % of U118 cells (U118 glioblastoma cells; 24 h): 41.5% | number of necrotic cells (U118 glioblastoma cells; U118, different samples (2 and 4 µM; 6–24 h)): ≤ 10% | increase of ROS generation compared to the control (U87 cells [2]): 1.9 fold | reduction in the area of cell colonies compared to the control (U118 cells [3]; U118, 12 at 200 nM): 1.4 fold | reduction in the area of cell colonies compared to the control (U118 cells [3]; U118, 12 at 500 nM): 2 fold | inhibition of 2D migration compared to the control (U118 cells [4]): two times | decrease in numbers of tubular structures compared with untreated cells (U87 cells [5]): 2.2 fold
